Assay results reported in patent US20120129842A1, “BISTHIAZOLE INHIBITORS OF PRO-MATRIX METALLOPROTEINASE ACTIVATION” (priority 2010, published 2012).

Experiments:
[1] = molecular target: T1, full-length proMMP9(1-707) (SEQ ID NO:1) (Homo sapiens, UniProt P14780, R574P); experiment: proMMP9/MMP3 P126 Activation Assay; format: biochemical; settings: 20 nM proMMP9, 20 nM MMP3, 80 min 37° C.
T1 construct: made in house; host or cells: HEK293 (proMMP9, secreted); E. coli (MMP3)
Experimental: The reaction volume was 50 μL. […] Reactivity of residual MMP3 towards P-126 substrate was minimal under these conditions.

[2] = molecular target: T2, proMMP9(67-444;ΔFnII) (SEQ ID NO:5) (Homo sapiens, UniProt P14780, DEL216-390); experiment: ThermoFluor binding assay with proMMP9(67-444;ΔFnII); settings: pH 7.0
T2 construct: start methionine (N); made in house; host or cells: E. coli BL21(DE3) RIL
T2 sequence (P14780 with tags, fused parts or gaps DEL216-390): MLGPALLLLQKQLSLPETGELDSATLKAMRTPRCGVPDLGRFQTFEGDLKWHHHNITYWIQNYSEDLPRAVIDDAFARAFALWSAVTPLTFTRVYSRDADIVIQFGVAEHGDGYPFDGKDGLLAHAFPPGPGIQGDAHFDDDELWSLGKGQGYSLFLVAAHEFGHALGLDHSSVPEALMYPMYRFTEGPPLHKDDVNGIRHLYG
Procedure, shortened: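 Thermal shift binding with 3.5 μM proMMP9(67-444;ΔFnII) and 50 μM 1,8-ANS in 50 mM HEPES pH 7.0, 100 mM NaCl, 2.5 mM MgCl2, 300 μM CaCl2, 0.001% Tween-20, with serially diluted compound. Heated 40 to 90° C at 1° C/min; fluorescence-derived Tm fitted using DSC/ThermoFluor thermodynamic parameters.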

SCW-induced arthritis = experiment: Efficacy in rats with SCW-induced arthritis (ankle thickness, clinical scores); format: in vivo, rat; settings: 5, 20, 50 mg/kg BID oral
Source text: A polyarthritis can be induced in female Lewis rats following i.p. administration of streptococcal cell wall (SCW) […] (PG-PS) (J Exp Med 1977; 146:1585-1602). The model has an acute phase (days 3-7) that is complement and neutrophil-dependent and that resolves. A chronic erosive phase begins at about day ten and is dependent on the development of specific T cell immunity to the PG-GS, which resists digestion and remains present in synovial macrophages for months. Like rheumatoid arthritis, SCW-induced arthritis is reduced by TNF inhibitors, and the dependence of SCW-induced arthritis on macrophages (Rheumatology; 2001; 40:978-987) and the strong association of rheumatoid arthritis severity with synovial-tissue macrophage counts (Ann Rheum Dis; 2005; 64:834-838) makes SCW-arthritis an attractive model for testing potential therapeutic agents. SCW PG-PS 10S (Beckton Dickinson Cat#210866) suspended in saline was vortexed for 30 seconds and sonicated for 3 min with a probe type sonicator prior to injection. […]
To induce arthritis, Female Lewis (LEW/N) rats, 5-6 weeks of age (80-100 g) were injected (i.p.) with SCW PG-PS as described above. […] Each ankle was measured 3 times and averaged, and treatment groups were randomized based on ankle thickness (Table 6). […]

T1 sequence (P14780 20-707 R574P): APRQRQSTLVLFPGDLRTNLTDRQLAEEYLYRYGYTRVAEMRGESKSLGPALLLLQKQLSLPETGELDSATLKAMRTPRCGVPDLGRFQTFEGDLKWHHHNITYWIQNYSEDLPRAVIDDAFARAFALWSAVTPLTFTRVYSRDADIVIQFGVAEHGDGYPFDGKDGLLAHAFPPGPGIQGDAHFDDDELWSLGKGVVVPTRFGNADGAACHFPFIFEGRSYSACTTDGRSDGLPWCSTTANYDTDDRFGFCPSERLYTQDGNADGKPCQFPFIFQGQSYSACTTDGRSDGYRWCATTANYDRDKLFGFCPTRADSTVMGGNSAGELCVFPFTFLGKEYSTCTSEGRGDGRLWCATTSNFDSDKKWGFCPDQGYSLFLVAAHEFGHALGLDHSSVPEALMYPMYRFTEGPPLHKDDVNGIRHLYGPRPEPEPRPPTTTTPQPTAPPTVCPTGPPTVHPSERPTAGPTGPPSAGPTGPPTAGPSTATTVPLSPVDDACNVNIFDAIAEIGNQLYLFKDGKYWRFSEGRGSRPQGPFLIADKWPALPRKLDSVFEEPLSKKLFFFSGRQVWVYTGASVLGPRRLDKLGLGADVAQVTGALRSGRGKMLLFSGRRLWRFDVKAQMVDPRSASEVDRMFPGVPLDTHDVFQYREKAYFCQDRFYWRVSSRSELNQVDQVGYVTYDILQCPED

Cc1nc(C)c(-c2csc(Nc3cc(S(N)(=O)=O)ccc3OC(C)C)n2)s1 [Example 64, 3-(2′,4′-Dimethyl-[4,5′]bithiazolyl-2-ylamino)-4-isopropoxy-benzenesulfonamide.HBr]
IC50 [1]: 0.18 µM
Kd [2]: 0.26 µM
ankle thickness measurements, effect of treatment (SCW-induced arthritis; Day 18-26): dose-dependent decrease in ankle thickness measurements
clinical score measurements, effect of treatment (SCW-induced arthritis; significant effects emerging at 20 mg/kg): dose dependent decrease in clinical score measurements
